Measured values: paper PMC8504577, “Evaluation of a Clinically Relevant Drug–Drug Interaction Between Rosuvastatin and Clopidogrel and the Risk of Hepatotoxicity” (Frontiers in Pharmacology, 2021)
“And” between values parts separate entries of the source, which are not always exact repeats. Equal entries are not always repeated. “Also recorded” adds a separate entry of the source. Where two headings read alike, the source gives them in different places.

Assays:
[1] = system: human primary hepatocytes
Method: (§1) Cytotoxicity was determined with MTT assay in cryopreserved human hepatocytes. Thawing and plating of cryopreserved hepatocytes were carried out according to the manufacturer’s protocol. Primary human hepatocytes at a density of 7×10^4 cells/well were cultured for 24 h after plating in 96-well collagen-coated plates. Then, the hepatocytes were treated with varying concentrations of RSV, CP, RSV plus CP, or tamoxifen and incubated for 24 or 96 h at 37°C. 11 μL of 5 mg/ml MTT was added to each well of the plate, and then the plate was incubated at 37°C for 3–4 h. After the medium was aspirated, 150 μL of DMSO was added to dissolve the formazan. The absorbance at 570 nm was measured and corrected for background absorption at 690 nm using a SpectraMax® i3 plate reader (Molecular Devices, Silicon Valley, CA, United States). AST and LDH levels in the medium of parallel processed plates were measured by commercially available assay kits. […] All experiments were performed in triplicate.
A Shimadzu LC-20AD liquid chromatography system (Shimadzu, Kyoto, Japan) and an API5000 triple quadrupole tandem mass spectrometer (Applied Biosystems/Sciex, Framingham, MA, United States) coupled with an electrospray ionization (ESI) source was used for the determination of in vitro samples. Chromatographic separation was conducted with gradient elution on a Synergi Hydro-RP column (30 × 2.0 mm, 4 μm, Phenomenex, Torrance, CA, United States). […] The mobile phase consisted of methanol (A) and water (B), both containing 0.1% (V/V) formic acid. The flow rate was 0.5 ml/min and the gradient elution was run using the following program: 0.01 min (15% A)-1.0 min (95% A), 1.5 min (95% A)-1.51 min (15% A), 2.5 min (stop).

OATP1B1 = settings: cited from earlier work
[2] = Plasma pharmacokinetic study in rats
Method: For the plasma pharmacokinetic study, 16 rats were randomly assigned into four groups (n = 4, each group, groups I to IV) and received oral (p.o.) administrations as oral gavage of CP (27 mg/kg) or the same volume of vehicle control for 20 days. Then, the rats were made to fast overnight before dosing but with free access to water. On day 21, rats in group I were treated with a p.o. dose as oral gavage of CP at 27 mg/kg and a single intravenous (i.v.) dose of RSV at 5 mg/kg. Rats in group II were treated with a p.o. dose as oral gavage of vehicle control and a single i.v. dose of RSV at 5 mg/kg. Rats in group Ⅲ were treated with a p.o. dose as oral gavage of CP at 27 mg/kg and a p.o. dose as oral gavage of RSV at 5 mg/kg. Rats in group Ⅳ were treated with a p.o. dose as oral gavage of vehicle control and a p.o. dose as oral gavage of RSV at 5 mg/kg. Blood samples (0.15 ml) were collected at 0, 1, 2, 5, 15, 30, 60, 120, 180, 360, 480, 600, and 720 min after administration of the i.v. dose of the RSV group and at 0, 5, 30, 60, 120, 180, 360, 480, 600, and 720 min for the p.o. dose as oral gavage of the RSV group. After each sampling, a volume of 0.15 ml physiologic saline solutions was administered to sustain isotonic fluid balance. Plasma samples were harvested by using a centrifuge and then stored at −80°C until analysis by LC-MS/MS.
A Shimadzu LC-30AD liquid chromatography system (Shimadzu, Kyoto, Japan) and an API4000 triple quadruple tandem mass spectrometer (Applied Biosystems/Sciex, Framingham, MA, United States) coupled with an ESI source was used for the LC-MS/MS analysis of in vivo samples. The separation was carried out on an Agilent Extend C18 column (1.8 µm, 4.6 mm × 30 mm, Agilent Technologies). The mobile phase consisting of acetonitrile (A) and water (B: 1 mM ammonium acetate and 1% (V/V) formic acid). […] The flow rate was 1 ml/min and the gradient elution method was as follows: 0.01 min (10% A)-0.4 min (10% A), 0.8 min (95% A)-2.0 min (95% A), and 2.3 min (10% A)-2.5 min (stop).
Phoenix WinNonlin® 7.1 (Pharsight Corporation, Mountain View, CA, United States) was used to calculate the pharmacokinetic parameters by the noncompartmental method. IC50 values were obtained by a computer-generated nonlinear least squares fit using GraphPad Prism 8.1 (GraphPad Software, San Diego, CA, United States). Statistical analysis was performed using SPSS ver. 22.0 (IBM, Chicago, IL, United States). The results are presented as mean ± S.D., unless otherwise stated. After testing for the homogeneity of variance, statistical analysis was performed with a one-way ANOVA followed by the LSD post hoc test or unpaired Student’s t-test. A probability (p) of less than 0.05, 0.01, and 0.001 was considered to be statistically significant, highly significant, and extremely significant, respectively.

[3] = system: human primary hepatocytes; assay: Cytotoxicity (MTT, AST, LDH) in cryopreserved human hepatocytes; assay type: cell-based
Method: as §1, with “Primary human hepatocytes at a density of 7×10^4 cells/well were cultured for 24 h after plating in 96-well collagen-coated plates. Then, the hepatocytes were treated with varying concentrations of RSV, CP, RSV plus CP, or tamoxifen and incubated for 24 or 96 h at 37°C.” left out

BCRP = settings: read-out: IC50 BCRP; BCRP-mediated RSV transport, membrane vesicles; ref Varma et al. (2019); cited from earlier work
[4] = Cytotoxicity (MTT, AST, LDH) in cryopreserved human hepatocytes; assay type: cell-based; settings: human, cryopreserved primary human hepatocytes; 96 h incubation
Method: as §1, with “Primary human hepatocytes at a density of 7×10^4 cells/well were cultured for 24 h after plating in 96-well collagen-coated plates. Then, the hepatocytes were treated with varying concentrations of RSV, CP, RSV plus CP, or tamoxifen and incubated for 24 or 96 h at 37°C.” left out

[5] = 96 h co-exposure with 100 µM CP vs without CP
[6] = rats, p.o. RSV (group III vs IV)
[7] = rats, p.o. RSV (group III vs IV), not significant

For `COC(=O)[C@H](c1ccccc1Cl)N1CCc2sccc2C1` [CP, clopidogrel], the Free medium concentration ([1]; human) is given as 0.026 to 0.40 nM, the IC50 (OATP1B1; substrate cerivastatin, ref Tamraz et al. (2013), read-out: IC50 OTAP1B1 (cerivastatin, CER, as substrate)) is given as 3950 nM and the IC50 (OATP1B1; substrate estradiol 17β-glucuronide, ref Elsby et al. (2016), read-out: IC50 OTAP1B1 (estradiol 17β-glucuronide, e17βG, as substrate)) is given as 1800 nM. The Plasma concentration ([2]; rats, after 8 h post-dosing) was “undetectable”, the “Cytotoxicity (MTT)” value ([3]; 24 and 96 h incubation) was “no effect on cell viability; also recorded: did not show hepatotoxic effects” and the “AST level in medium” value ([3]; 96 h, presence of 100 µM CP) was “trend of increase”. The “LDH level in medium” value ([3]; 96 h, presence of 100 µM CP) was “missed statistical significance” and the IC50 (BCRP) was 104 µM.

In the case of `CC(C)c1nc(N(C)S(C)(=O)=O)nc(-c2ccc(F)cc2)c1/C=C/[C@@H](O)C[C@@H](O)CC(=O)O` [RSV, rosuvastatin], the “Cell to medium concentration ratio of RSV” value [1, 5] is reported as “significantly increased; also recorded: significantly enhanced”, the “Intracellular concentration of RSV” value [1, 5] is reported as “significantly increased; also recorded: significantly enhanced” and the “Vss (Vss/F)” value ([2]; rat plasma, Group II: single i.v. RSV 5 mg/kg + p.o. vehicle control) is reported as 1,148.40 ± 701.23 ml/kg. The “RSV AUC in presence of CP relative to absence” value ([2]; rats, i.v. RSV) was 1.76 fold, the “Decrease of RSV CL by multiple p.o. doses of CP” value ([2]; rats, i.v. RSV (group I vs II)) was 42.62% and 42.6% and the “Increase of RSV plasma AUC0-infinity by multiple p.o. doses of CP” value ([2]; rats, i.v. RSV (group I vs II)) was 76.29%. For the same molecule, the “Increase of RSV plasma AUC0–12h by multiple p.o. doses of CP” value ([2]; rats, i.v. RSV (group I vs II)) was 75.55%, the “Increase of RSV Cmax by multiple p.o. doses of CP” value ([2]; rats, i.v. RSV (group I vs II), not significant) was 110.32% and the “RSV AUC in presence of CP relative to absence” value ([2]; rats, p.o. RSV) was 1.87 fold. The “Decrease of RSV CL by multiple p.o. doses of CP” value [2, 6] was 43.27% and 43.3%, the “Increase of RSV plasma AUC0-infinity by multiple p.o. doses of CP” value [2, 6] was 87.48% and the “Increase of RSV plasma AUC0–12h by multiple p.o. doses of CP” value [2, 6] was 67.27%. For the same molecule, the “Decrease of RSV Vss by multiple p.o. doses of CP” value [2, 7] was 49.42%, the “Increase of RSV Cmax by multiple p.o. doses of CP” value [2, 7] was 43.90% and the clearance ([2]; read-out: CL (CL/F), rat plasma, Group II: single i.v. RSV 5 mg/kg + p.o. vehicle control) was 59.1 mL/min/kg. The IC50 at 96 h [4] was 14.8 µM and the “Cytotoxicity (MTT)” value ([3]; 96 h, co-incubation with 100 µM CP where combined) was “dose-dependent cytotoxicity”.
